In ChEMBL document CHEMBL1122924 (J Med Chem, 1985) one finds half-life and logD data, which are given here for nine molecules.

A word on the half-life: it is how long it takes for the measured level to halve. By logD is commonly meant lipophilicity at a set pH, counting ionised and neutral species. A higher logD goes with higher lipophilicity.

Data set [1] is described as follows: physchem. To be noted: pH 7.4.
The nature of data set [2]: physchem. To be noted: octanol/0.05 M phosphate buffer, pH 7.4.
Description: Compound was evaluated for apparent partition coefficient (log P) between octanol and 0.05 M phosphate buffer solution of pH 7.40

The molecule `CCOC(=O)[C@@H](CC)[C@H](CO)Cc1cncn1C` came in with a half-life in data set [1] of 8.5 h. Further, in data set [2], the logD is 0.58.

Molecule `CC[C@H](C(=O)OCCc1ccccc1)[C@H](CO)Cc1cncn1C` displayed a half-life in data set [1] of 3.78 h. The logD in data set [2] came to 2.16.

In data set [1], `CC[C@H](C(=O)OCc1ccc(Cl)cc1)[C@H](CO)Cc1cncn1C` came in with a half-life of 0.5 h. Besides, in data set [2], the pH-dependent lipophilicity (logD) was determined as 2.54.

Turning to `CC[C@H](C(=O)OC(C)c1ccccc1)[C@H](CO)Cc1cncn1C` (stereo partly drawn), the half-life in data set [1] was found to be 7.92 h. The same molecule showed a pH-dependent lipophilicity (logD) in data set [2] of 2.08.

Take `CCCCCCOC(=O)[C@@H](CC)[C@H](CO)Cc1cncn1C`: in data set [1], the half-life was found to be 18.4 h. In data set [2], the pH-dependent lipophilicity (logD) is 2.56.

Take `CC[C@H](C(=O)OCc1ccccc1)[C@H](CO)Cc1cncn1C`: in data set [1], the half-life was found to be 0.833 h. The molecule further returned a pH-dependent lipophilicity (logD) in data set [2] of 1.82.

Molecule `CCCCOC(=O)[C@@H](CC)[C@H](CO)Cc1cncn1C` gave a half-life in data set [1] of 13.7 h. In data set [2], this molecule gave a pH-dependent lipophilicity (logD) of 1.58.

Take `CC[C@H](C(=O)OCc1ccc(C)cc1)[C@H](CO)Cc1cncn1C`: in data set [1], the half-life turned out to be 1.28 h. This molecule also came in with a logD in data set [2] of 2.31.

On to `CC[C@H](C(=O)OCc1ccccc1C)[C@H](CO)Cc1cncn1C`, for which the half-life in data set [1] came to 2.32 h. In data set [2], this molecule returned a logD of 2.27.
